{"source": "patent US20040009964A1", "about": "“Compositions and methods for the treatment of matrix metalloproteinase-related diseases” (BioInterface Technologies, Inc., priority 2002, published 2004)", "key": {"[1]": {"biological_target": "human neutrophil collagenase (Homo sapiens, UniProt P22894)", "sequence (P22894 101-467)": "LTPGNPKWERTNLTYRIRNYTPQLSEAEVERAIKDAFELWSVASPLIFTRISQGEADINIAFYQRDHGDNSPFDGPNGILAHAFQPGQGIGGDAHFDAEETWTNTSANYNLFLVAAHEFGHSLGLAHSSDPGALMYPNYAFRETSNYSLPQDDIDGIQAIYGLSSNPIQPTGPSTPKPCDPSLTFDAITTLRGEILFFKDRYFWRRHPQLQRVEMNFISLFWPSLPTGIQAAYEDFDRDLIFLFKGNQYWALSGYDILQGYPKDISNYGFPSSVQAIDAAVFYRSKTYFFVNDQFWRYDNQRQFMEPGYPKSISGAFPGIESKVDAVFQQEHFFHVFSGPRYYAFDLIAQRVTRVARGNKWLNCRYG", "conditions": "cited from earlier work; for Effect of metal ion binding on collagenase activity: binding to human neutrophil collagenase"}, "[2]": {"system": "matrix metalloproteinase", "conditions": "synoviocyte MMP activity; cited from earlier work"}, "[3]": {"system": "S. epidermidis (ATCC 12228)", "conditions": "overnight at 37° C., dilutions 1.95 to 250 μg/ml", "description": "(§1) In vitro antimicrobial activity was calculated by determining the minimum inhibitory concentration (MIC) for a silver thiosulfate ion complex composition; for example, the silver thiosulfate ion complex produced according to Example 3. The antimicrobial activity of this embodiment was determined by using serial two-fold dilutions ranging from 1.95 to 250 μg/ml using tryptic soy broth (Difco) as a diluent. Each dilution was inoculated with a 0.005 ml aliquot from a 24-hour microbial growth culture having a concentration of approximately 10^5 to 10^7 CFU/ml. The dilutions were incubated overnight at 37° C. The MIC was determined by identifying the lowest dilution (expressed as μg/ml) of the silver thiosulfate ion complex that was without evidence of growth (i.e. was not cloudy)."}, "[4]": {"system": "E. coli (ATCC 25922)", "conditions": "overnight at 37° C., dilutions 1.95 to 250 μg/ml", "description": "as §1"}, "[5]": {"system": "P. aeruginosa (ATCC 27853)", "conditions": "overnight at 37° C., dilutions 1.95 to 250 μg/ml", "description": "as §1"}, "[6]": {"system": "S. aureus (ATCC 25923)", "conditions": "overnight at 37° C., dilutions 1.95 to 250 μg/ml", "description": "as §1"}}, "note": "Entries after “also recorded” stand apart in the source; their conditions may differ.", "data": [{"molecule": "[Ag+]", "note": "[Ag(I)]", "values": [{"measurement": "Direct inhibition of matrix metalloproteinase", "setting": "[1]; Ag(I) concentrations up to 10 μM, higher concentrations precipitated in the culture media", "result": "did not directly inhibit"}]}, {"molecule": "[Au+]", "note": "[Au(I)]", "values": [{"measurement": "Effect of metal ion binding on collagenase activity", "setting": "[1]", "result": "noncompetitive inhibition; also recorded: collagenase inhibition"}]}, {"molecule": "[Cd+2]", "note": "[Cd(II)]", "values": [{"measurement": "Effect of metal ion binding on collagenase activity", "setting": "[1]", "result": "noncompetitive inhibition; also recorded: collagenase inhibition"}]}, {"molecule": "[Cu+2]", "note": "[Cu(II)]", "values": [{"measurement": "Effect of metal ion binding on collagenase activity", "setting": "[1]", "result": "noncompetitive inhibition; also recorded: collagenase inhibition"}]}, {"molecule": "[Hg+2]", "note": "[Hg(II)]", "values": [{"measurement": "Effect of metal ion binding on collagenase activity", "setting": "[1]", "result": "collagenase inhibition"}]}, {"molecule": "[Zn+2]", "note": "[Zn(II)]", "values": [{"measurement": "Effect of metal ion binding on collagenase activity", "setting": "[1]", "result": "retention of activity"}]}, {"molecule": "O=[N+]([O-])[O-].O=[N+]([O-])[O-].O=[N+]([O-])[O-].[Ga+3]", "note": "[gallium nitrate]", "values": [{"measurement": "Inhibition of matrix metalloproteinase activity", "setting": "[2]", "result": "can inhibit matrix metalloproteinase activity"}]}, {"molecule": "Na4[Ag2(S2O3)3]H2O [Silver Thiosulfate Ion Complexes]", "values": [{"measurement": "MIC", "setting": "[3]", "result": "<1.95", "unit": "µg/mL"}, {"measurement": "MIC", "setting": "[4]", "result": "<1.95", "unit": "µg/mL"}, {"measurement": "MIC", "setting": "[5]", "result": "<1.95", "unit": "µg/mL"}, {"measurement": "MIC", "setting": "[6]", "result": "<1.95", "unit": "µg/mL"}]}]}
